According to patent US5422342A, “2,3-disubstituted isoxazolidines, agents containing them and their use” (Hoechst Aktiengesellschaft, priority 1986, dated 1995):
Several values for one entry are separate records, joined by “and”; a condition that tells them apart may be missing. Equal values may be shown once.

Molecular target: prolyl hydroxylase (Homo sapiens, UniProt P13674)
Assay: prolyl hydroxylase enzyme assay with preincubation (suicide inhibition)
Type: biochemical
Details: concentration which inactivates 50% of the enzyme after one hour; preincubation with iron(II) ions, α-ketoglutarate and ascorbate
Description: The inhibitory action can be determined in an enzyme assay analogous to the method of B. Peterkofsky and R. DiBlasio Anal. Biochem. 66, 279-286 (1975). This entails underhydroxylated collagen being enzymatically hydroxylated with prolyl hydroxylase in the presence of iron(II) ions, α-ketoglutarate and ascorbate.
The suicidal nature of the inhibition is established by preincubation of the enzyme in the presence of iron(II) ions, α-ketoglutarate and ascorbate with the inhibitors for various times, and then determination of the remaining activity of the enzyme in the presence of a peptide substrate. It is possible to use for determination of the activity both the method of Peterkofsky and DiBlasio described above and other methods such as described by K. I. Kivirikko and R. Myllyla, Meth. Enzym. 82, 245-304 (1982). The concentration which inactivates 50% of the enzyme after one hour is stated.

Chain of prolyl hydroxylase (P13674 18-534): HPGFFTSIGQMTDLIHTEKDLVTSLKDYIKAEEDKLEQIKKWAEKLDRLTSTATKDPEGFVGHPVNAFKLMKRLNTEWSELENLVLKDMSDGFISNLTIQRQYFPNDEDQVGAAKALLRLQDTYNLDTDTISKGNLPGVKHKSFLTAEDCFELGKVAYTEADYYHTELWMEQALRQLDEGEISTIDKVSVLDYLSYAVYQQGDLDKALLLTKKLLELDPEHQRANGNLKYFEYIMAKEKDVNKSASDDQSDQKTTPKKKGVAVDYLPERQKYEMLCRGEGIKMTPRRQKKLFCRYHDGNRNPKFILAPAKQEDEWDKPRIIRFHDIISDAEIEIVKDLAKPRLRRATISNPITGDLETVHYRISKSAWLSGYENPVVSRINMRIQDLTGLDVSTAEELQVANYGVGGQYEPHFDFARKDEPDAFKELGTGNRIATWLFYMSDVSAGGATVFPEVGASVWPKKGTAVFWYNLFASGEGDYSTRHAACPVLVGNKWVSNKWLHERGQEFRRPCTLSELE
Chain of prolyl hydroxylase (P07237 18-508 partner): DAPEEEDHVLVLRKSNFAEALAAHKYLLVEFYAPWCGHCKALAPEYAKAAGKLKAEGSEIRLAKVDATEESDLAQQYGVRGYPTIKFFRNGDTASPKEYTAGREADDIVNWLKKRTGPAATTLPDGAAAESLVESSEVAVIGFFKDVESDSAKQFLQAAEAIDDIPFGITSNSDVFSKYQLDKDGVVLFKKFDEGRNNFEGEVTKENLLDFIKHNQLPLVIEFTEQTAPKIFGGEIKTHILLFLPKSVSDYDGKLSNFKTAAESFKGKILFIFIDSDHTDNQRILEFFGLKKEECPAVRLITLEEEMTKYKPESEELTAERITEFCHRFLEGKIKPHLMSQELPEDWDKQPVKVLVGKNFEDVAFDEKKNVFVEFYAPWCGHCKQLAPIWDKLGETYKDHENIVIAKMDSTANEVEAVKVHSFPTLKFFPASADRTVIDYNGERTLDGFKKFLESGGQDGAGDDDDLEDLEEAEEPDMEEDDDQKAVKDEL

Molecule | ID50 [60 min; μmol/l]
CC(NC(=O)OCc1ccccc1)C(=O)N1OCCC1C(=O)NCC(=O)OCc1ccccc1 (centres unmarked) [Z--(D)--Ala--Opr--Gly--OBzl, Z--(D)-- Ala--Opr--Gly--OBzl] | > 10000.0 µmol/L
CN(CC(=O)OCc1ccccc1)C(=O)C1CCON1C(=O)C(Cc1ccccc1)NC(=O)OCc1ccccc1 (centres unmarked) [Z--Phe--Opr--Sar-- OBzl, Z--Phe--Opr--Sar--OBzl] | > 10000.0 µmol/L
O=C(CNC(=O)C1CCON1C(=O)C(Cc1ccccc1)NC(=O)OCc1ccccc1)OCCc1ccccc1 (centres unmarked) [Z--Phe--Opr--Gly--O--CH2 --CH2 --C6 H5] | 0.9 µmol/L
HPheOprNHCH2 COC6 H4 -4-Cl [H--Phe--Opr--NH--CH2 --CO--C6 H4-4-Cl] | 15.5 µmol/L
O=C(CNC(=O)C1CCON1C(=O)Cc1ccccc1)OCc1ccccc1 (centres unmarked) [C6 H5 --CH2 --CO--Opr--Gly--OBzl] | 1000.0 µmol/L
O=C(CCc1ccccc1)CNC(=O)C1CCON1C(=O)C(Cc1ccccc1)NC(=O)OCc1ccccc1 (stereo not drawn) [Z-Phe-Opr-NH--CH2 --CO--CH2 --CH2 --C6 H5] | 3.4 µmol/L
CC(=O)N1CCCC1C(=O)N1OCCC1C(=O)NCC(=O)OC(C)(C)C (centres unmarked) [Ac--Pro--Opr--Gly--OtBu] | 8000.0 µmol/L
CC(=O)N1CCCC1C(=O)N1OCCC1C(=O)NCC(=O)NCCc1ccccc1 (centres unmarked) [Ac--Pro--Opr--Gly--NH--CH2 --CH2 --C6 H5] | 4900.0 µmol/L
O=C(CNC(=O)C1CCON1C(=O)C(Cc1ccccc1)NC(=O)OCc1ccccc1)OCc1ccccc1 (stereo not drawn) [Z--Phe--Opr--Gly--OBzl, Z-Phe-Opr-Gly-OBzl] | 0.8 µmol/L
O=C(CNC(=O)C1CCON1C(=O)CCc1ccccc1)OCc1ccccc1 (centres unmarked) [C6 H5 --CH2 --CH2 --CO--Opr--Gly--OBzl, N-3-Phenylpropionyl-Opr--Gly--OBzl] | 2000.0 µmol/L
CC(NC(=O)OCc1ccccc1)C(=O)N1OCCC1C(=O)NCC(=O)O (centres unmarked) [Z--Ala--Opr--Gly--OH] | 330.0 µmol/L
CC(=O)N1CCCC1C(=O)N1OCCC1C(=O)NCC(=O)OCc1ccccc1 (centres unmarked) [Ac--Pro--Opr--Gly--OBzl] | 60.0 µmol/L
O=C(CNC(=O)C1CCON1Cc1ccccc1)OCc1ccccc1 (stereo not drawn) [C6 H5 --CH2 --Opr--Gly--OBzl, C6 H5 --CH2 -Opr-Gly-OBzl] | 610.0 µmol/L
CS(=O)(=O)CCOC(=O)NC(CCC(=O)OCc1ccccc1)C(=O)N1OCCC1C(=O)NCC(=O)OCc1ccccc1 (centres unmarked) [Msc--Glu(OBzl)--Opr--Gly--OBzl] | 30.0 µmol/L
O=C(NC(Cc1ccccc1)C(=O)N1OCCC1C(=O)NCC(=O)c1ccccc1)OCc1ccccc1 (centres unmarked) [Z--Phe--Opr--NH--CH2 --CO--C6 H5, ZPheOprNHCH2 COC6 H5] | 2.4 µmol/L
O=C(CNC(=O)C1CCON1C(=O)C1Cc2ccccc2CN1C(=O)OCc1ccccc1)OCc1ccccc1 (centres unmarked) [Z--Tic--Opr--Gly--OBzl] | 1.5 µmol/L
O=C(CNC(=O)C1CCON1C(=O)C(Cc1ccccc1)NC(=O)OCc1ccccc1)OCc1ccc(F)cc1 (centres unmarked) [Z--Phe--Opr--Gly--O--CH2 --C6 H4-4-F] | 0.8 µmol/L
CC(=O)N1CCCC1C(=O)N1OCCC1C(=O)NCC(=O)NCc1ccccc1 (centres unmarked) [Ac--Pro--Opr--Gly--NH--CH2 --C6 H5] | 6000.0 µmol/L
Z-Phe(r)-Opr-Gly-OBzl [Z--Phe(r)--Opr--Gly--OBzl] | 1.1 µmol/L
O=C(O)CCC(NC(=O)OCc1ccccc1)C(=O)N1OCCC1C(=O)NCC(=O)OCc1ccccc1 (centres unmarked) [Z--Glu--Opr--Gly--OBzl] | 5000.0 µmol/L
O=C(CNC(=O)C1CCON1C(=O)Cc1ccccc1)OCc1ccc([N+](=O)[O-])cc1 (centres unmarked) [4-Nitrobenzyl ester of N-phenylacetyl-Opr-Gly] | 540.0 µmol/L
CCN(CC)C(=O)CNC(=O)C1CCON1C(=O)C1CCCN1C(C)=O (centres unmarked) [Ac--Pro--Opr--Gly--N(C2 H5)2] | 16900.0 µmol/L
CC(NC(=O)OCc1ccccc1)C(=O)N1OCCC1C(=O)NCC(=O)OC(C)(C)C (centres unmarked) [Z--Ala--Opr--Gly--OtBu, Z--Ala--Opr--Gly--OtBU] | 40.0 µmol/L
O=C(CNC(=O)C1CCON1C(=O)C(CCCCN1C(=O)c2ccccc2C1=O)NC(=O)OCc1ccccc1)OCc1ccccc1 (centres unmarked) [Z--Lys(Pht)--Opr--Gly--OBzl] | 11.0 µmol/L
C[C@H](NC(=O)OCc1ccccc1)C(=O)N1OCCC1C(=O)NCC(=O)OCc1ccccc1 (some centres unmarked) [Z--Ala--Opr--Gly--OBzl] | 3.0 µmol/L
N#Cc1ccc(C(=O)CNC(=O)C2CCON2C(=O)C(Cc2ccccc2)NC(=O)OCc2ccccc2)cc1 (centres unmarked) [Z--Phe--Opr--NH--CH2 --CO--C6 H4-4-CN, ZPheOprNHCH2 COC6 H4-4-CN] | 1.1 µmol/L
O=C(CNC(=O)C1CCON1C(=O)C(Cc1ccc(O)cc1)NC(=O)OCc1ccccc1)OCc1ccccc1 (centres unmarked) [Z--Tyr--Opr--Gly--OBzl] | 2.4 µmol/L
CC(C)C(NC(=O)OCc1ccccc1)C(=O)N1OCCC1C(=O)NCC(=O)OCc1ccccc1 (centres unmarked) [Z--Val--Opr--Gly--OBzl] | 40.0 µmol/L

Test system: calvarial culture
Assay: inhibitory action in calvarial culture (hydroxyproline/proline quotient)
Type: cell-based
Details: concentration giving 50% decrease in the hydroxyproline/proline quotient on feeding with 14C-proline
Excerpt: The inhibitory action can also be determined in cell or tissue culture. It is possible to use for this purpose fibroblasts or other collagen-producing cells, or calvariae or other collagen-producing organs. Table 2 is a compilation of the inhibitory action of some substances according to the invention in calvarial culture. The concentration which results in a 50% decrease in the hydroxyproline/proline quotient on feeding with ^14 C-proline is stated.

IC50 | Molecule
2 mM | O=C(CNC(=O)C1CCON1C(=O)Cc1ccccc1)OCc1ccccc1 (centres unmarked) [C6 H5 --CH2 --CO--Opr--Gly--OBzl]
0.55 mM | CC(C)(C)OC(=O)CNC(=O)C1CCON1C(=O)C1CCCN1C(=O)OCc1ccccc1 (centres unmarked) [Z--Pro--Opr--Gly--OtBu]
7.5 mM | CC(=O)N1CCCC1C(=O)N1OCCC1C(=O)NCC(=O)OC(C)(C)C (centres unmarked) [Ac--Pro--Opr--Gly--OtBu]
2.5 mM | O=C(CNC(=O)C1CCON1C(=O)Cc1ccccc1)OCc1ccc([N+](=O)[O-])cc1 (centres unmarked) [4-Nitrobenzyl ester of N-phenylacetyl-Opr-Gly]
1.65 mM and 2.5 mM | C[C@H](NC(=O)OCc1ccccc1)C(=O)N1OCCC1C(=O)NCC(=O)OCc1ccccc1 (some centres unmarked) [Z--Ala--Opr--Gly--OBzl]
0.38 mM | CC(C)C(NC(=O)OCc1ccccc1)C(=O)N1OCCC1C(=O)NCC(=O)OCc1ccccc1 (centres unmarked) [Z--Val--Opr--Gly--OBzl]

Test system: C1q biosynthesis by macrophages
Assay: not given
Details: W. Muller et al., FEBS Lett. 90, 218f (1978); cited from earlier work

Molecule | effect on C1q biosynthesis by macrophages
c1ccc(-c2ccccn2)nc1 [α,α-dipyridyl] | inhibition of C1q biosynthesis by macrophages
